Tests used:
Assay in all cases: Kinase selectivity, Z'-LYTE
Assay type in all cases: biochemical
CDK9/cyclin T1 = molecular target: T1, CDK9/cyclin T1 (Homo sapiens, UniProt P50750)
T1 construct: purchased Invitrogen (Life Technologies) SelectScreen Z'-LYTE
How it was run: (§1)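 Recombinant kinase, per-kinase optimized mix; FRET peptide read-out after protease development (phospho-peptide resists cleavage).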

AKT1 (PKB alpha) = molecular target: T2, AKT1 (PKB alpha) (Homo sapiens, UniProt P31749)
T2 construct: purchased Invitrogen (Life Technologies) SelectScreen Z'-LYTE
How it was run: as §1

KIT = molecular target: T3, KIT (Homo sapiens, UniProt P10721)
T3 construct: purchased Invitrogen (Life Technologies) SelectScreen Z'-LYTE
How it was run: as §1

MAP2K2 (MEK2) = molecular target: T4, MAP2K2 (MEK2) (Homo sapiens, UniProt P36507)
T4 construct: purchased Invitrogen (Life Technologies) SelectScreen Z'-LYTE
How it was run: as §1

LYNA = molecular target: T5, LYNA (Homo sapiens, UniProt P07948)
T5 construct: purchased Invitrogen (Life Technologies) SelectScreen Z'-LYTE
T5 sequence (P07948 whole entry): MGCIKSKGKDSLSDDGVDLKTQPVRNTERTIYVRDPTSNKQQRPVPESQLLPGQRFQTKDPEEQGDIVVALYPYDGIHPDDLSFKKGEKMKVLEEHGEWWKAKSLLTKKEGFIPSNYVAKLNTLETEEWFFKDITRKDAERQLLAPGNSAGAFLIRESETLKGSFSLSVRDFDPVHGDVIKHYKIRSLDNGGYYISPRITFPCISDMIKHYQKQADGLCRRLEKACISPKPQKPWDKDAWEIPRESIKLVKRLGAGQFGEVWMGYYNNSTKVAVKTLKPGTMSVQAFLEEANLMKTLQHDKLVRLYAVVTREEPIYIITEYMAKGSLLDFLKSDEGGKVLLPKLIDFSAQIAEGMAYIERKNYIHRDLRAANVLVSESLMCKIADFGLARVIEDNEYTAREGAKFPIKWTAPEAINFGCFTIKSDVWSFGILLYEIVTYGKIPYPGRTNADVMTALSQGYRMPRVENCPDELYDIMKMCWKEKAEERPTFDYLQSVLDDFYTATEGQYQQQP
How it was run: as §1

PAK3 = molecular target: T6, PAK3 (Homo sapiens, UniProt O75914)
T6 construct: purchased Invitrogen (Life Technologies) SelectScreen Z'-LYTE
How it was run: as §1

MAPK9 (JNK2) = molecular target: T7, MAPK9 (JNK2) (Homo sapiens, UniProt P45984)
T7 construct: purchased Invitrogen (Life Technologies) SelectScreen Z'-LYTE
How it was run: as §1

BRAF = molecular target: T8, BRAF (Homo sapiens, UniProt P15056)
T8 construct: purchased Invitrogen (Life Technologies) SelectScreen Z'-LYTE
How it was run: as §1

[1] = molecular target: T9, MAPK14 (p38 alpha) Direct (Homo sapiens, UniProt Q16539)
T9 construct: purchased Invitrogen (Life Technologies) SelectScreen Z'-LYTE
How it was run: as §1

MARK3 = molecular target: T10, MARK3 (Homo sapiens, UniProt P27448)
T10 construct: purchased Invitrogen (Life Technologies) SelectScreen Z'-LYTE
T10 sequence (P27448 whole entry): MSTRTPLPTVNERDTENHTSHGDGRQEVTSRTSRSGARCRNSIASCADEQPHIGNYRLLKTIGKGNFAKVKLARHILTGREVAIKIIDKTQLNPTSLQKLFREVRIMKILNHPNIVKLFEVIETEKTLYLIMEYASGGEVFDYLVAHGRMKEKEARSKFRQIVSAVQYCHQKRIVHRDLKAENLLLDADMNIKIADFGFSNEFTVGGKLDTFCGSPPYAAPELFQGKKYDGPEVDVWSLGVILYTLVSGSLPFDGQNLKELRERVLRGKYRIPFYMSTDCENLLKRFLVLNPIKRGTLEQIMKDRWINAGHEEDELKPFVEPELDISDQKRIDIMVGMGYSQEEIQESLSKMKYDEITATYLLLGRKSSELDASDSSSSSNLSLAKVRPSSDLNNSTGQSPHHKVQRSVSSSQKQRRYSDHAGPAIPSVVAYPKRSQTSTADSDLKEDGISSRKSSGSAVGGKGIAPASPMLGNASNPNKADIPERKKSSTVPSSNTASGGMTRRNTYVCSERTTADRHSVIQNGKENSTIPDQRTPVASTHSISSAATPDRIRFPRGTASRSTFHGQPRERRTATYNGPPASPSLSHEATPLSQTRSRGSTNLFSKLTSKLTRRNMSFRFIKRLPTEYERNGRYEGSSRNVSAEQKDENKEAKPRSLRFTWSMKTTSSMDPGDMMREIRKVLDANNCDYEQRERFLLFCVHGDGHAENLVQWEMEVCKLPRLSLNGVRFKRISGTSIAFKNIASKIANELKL
How it was run: as §1

RAF1 (cRAF) Y340D Y341D = molecular target: T11, RAF1 (cRAF) Y340D Y341D (Homo sapiens, UniProt P04049, Y340D/Y341D)
T11 construct: purchased Invitrogen (Life Technologies) SelectScreen Z'-LYTE
T11 sequence (P04049 whole entry Y340D/Y341D): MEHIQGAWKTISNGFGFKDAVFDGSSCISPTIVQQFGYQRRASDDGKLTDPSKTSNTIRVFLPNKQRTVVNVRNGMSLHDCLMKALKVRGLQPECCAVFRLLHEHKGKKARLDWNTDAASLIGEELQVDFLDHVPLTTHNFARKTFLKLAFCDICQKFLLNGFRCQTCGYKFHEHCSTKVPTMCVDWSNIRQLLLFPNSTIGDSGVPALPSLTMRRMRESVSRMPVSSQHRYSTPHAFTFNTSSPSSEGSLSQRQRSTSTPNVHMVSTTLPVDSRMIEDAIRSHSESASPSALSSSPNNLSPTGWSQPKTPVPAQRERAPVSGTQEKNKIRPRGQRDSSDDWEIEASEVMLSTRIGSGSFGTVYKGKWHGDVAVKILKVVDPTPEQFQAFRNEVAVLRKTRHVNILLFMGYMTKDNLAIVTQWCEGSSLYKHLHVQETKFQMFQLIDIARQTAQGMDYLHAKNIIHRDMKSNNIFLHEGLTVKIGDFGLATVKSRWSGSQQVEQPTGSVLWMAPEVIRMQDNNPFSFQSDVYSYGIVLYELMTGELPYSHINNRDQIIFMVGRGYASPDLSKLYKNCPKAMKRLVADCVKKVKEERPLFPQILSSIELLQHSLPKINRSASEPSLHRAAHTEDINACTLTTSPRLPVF
How it was run: as §1

PRKCB1 (PKC beta I) = molecular target: T12, PRKCB1 (PKC beta I) (Homo sapiens, UniProt P05771)
T12 construct: purchased Invitrogen (Life Technologies) SelectScreen Z'-LYTE
T12 sequence (P05771 whole entry): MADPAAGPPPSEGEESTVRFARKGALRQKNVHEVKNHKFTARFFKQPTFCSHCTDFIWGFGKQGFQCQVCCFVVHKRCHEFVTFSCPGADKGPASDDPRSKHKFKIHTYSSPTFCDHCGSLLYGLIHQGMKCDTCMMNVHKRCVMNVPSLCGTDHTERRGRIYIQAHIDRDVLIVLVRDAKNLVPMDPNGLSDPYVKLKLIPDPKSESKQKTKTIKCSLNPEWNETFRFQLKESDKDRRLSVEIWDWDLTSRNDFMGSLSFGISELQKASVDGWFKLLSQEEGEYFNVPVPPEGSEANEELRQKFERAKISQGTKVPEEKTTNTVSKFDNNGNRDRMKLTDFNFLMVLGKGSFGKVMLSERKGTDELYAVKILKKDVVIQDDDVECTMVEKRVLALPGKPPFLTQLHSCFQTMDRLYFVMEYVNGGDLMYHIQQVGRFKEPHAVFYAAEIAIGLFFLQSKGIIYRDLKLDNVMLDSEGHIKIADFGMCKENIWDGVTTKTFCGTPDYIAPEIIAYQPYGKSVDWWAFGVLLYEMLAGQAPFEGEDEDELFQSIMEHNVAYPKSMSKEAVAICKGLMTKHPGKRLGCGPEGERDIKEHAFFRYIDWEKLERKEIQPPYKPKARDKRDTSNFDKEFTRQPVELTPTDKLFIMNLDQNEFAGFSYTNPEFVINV
How it was run: as §1

PDK1 Direct = molecular target: T13, PDK1 Direct (Homo sapiens, UniProt O15530)
T13 construct: purchased Invitrogen (Life Technologies) SelectScreen Z'-LYTE
T13 sequence (O15530 1-556): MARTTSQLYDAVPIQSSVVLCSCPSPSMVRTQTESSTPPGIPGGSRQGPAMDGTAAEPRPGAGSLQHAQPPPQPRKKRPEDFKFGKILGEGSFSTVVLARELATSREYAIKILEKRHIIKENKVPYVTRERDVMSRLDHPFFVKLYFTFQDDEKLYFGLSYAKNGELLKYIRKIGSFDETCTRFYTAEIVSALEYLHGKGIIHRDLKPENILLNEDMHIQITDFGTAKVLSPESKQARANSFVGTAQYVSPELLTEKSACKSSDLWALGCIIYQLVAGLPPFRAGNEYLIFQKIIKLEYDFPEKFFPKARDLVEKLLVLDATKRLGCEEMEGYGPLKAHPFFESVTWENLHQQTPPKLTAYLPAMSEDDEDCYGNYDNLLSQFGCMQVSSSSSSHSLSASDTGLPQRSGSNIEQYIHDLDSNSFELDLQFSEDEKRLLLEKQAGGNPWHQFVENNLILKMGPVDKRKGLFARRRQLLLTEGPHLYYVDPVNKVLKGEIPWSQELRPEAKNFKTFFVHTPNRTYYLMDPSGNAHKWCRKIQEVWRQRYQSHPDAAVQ
How it was run: as §1

G3K3A (G3K3 alpha) = molecular target: T14, G3K3A (G3K3 alpha) (Homo sapiens, UniProt P49840)
T14 construct: purchased Invitrogen (Life Technologies) SelectScreen Z'-LYTE
How it was run: as §1

PRKCQ (PKC theta) = molecular target: T15, PRKCQ (PKC theta) (Homo sapiens, UniProt Q04759)
T15 construct: purchased Invitrogen (Life Technologies) SelectScreen Z'-LYTE
How it was run: as §1

TYK2 = molecular target: T16, TYK2 (Homo sapiens, UniProt P29597)
T16 construct: purchased Invitrogen (Life Technologies) SelectScreen Z'-LYTE
T16 sequence (P29597 whole entry): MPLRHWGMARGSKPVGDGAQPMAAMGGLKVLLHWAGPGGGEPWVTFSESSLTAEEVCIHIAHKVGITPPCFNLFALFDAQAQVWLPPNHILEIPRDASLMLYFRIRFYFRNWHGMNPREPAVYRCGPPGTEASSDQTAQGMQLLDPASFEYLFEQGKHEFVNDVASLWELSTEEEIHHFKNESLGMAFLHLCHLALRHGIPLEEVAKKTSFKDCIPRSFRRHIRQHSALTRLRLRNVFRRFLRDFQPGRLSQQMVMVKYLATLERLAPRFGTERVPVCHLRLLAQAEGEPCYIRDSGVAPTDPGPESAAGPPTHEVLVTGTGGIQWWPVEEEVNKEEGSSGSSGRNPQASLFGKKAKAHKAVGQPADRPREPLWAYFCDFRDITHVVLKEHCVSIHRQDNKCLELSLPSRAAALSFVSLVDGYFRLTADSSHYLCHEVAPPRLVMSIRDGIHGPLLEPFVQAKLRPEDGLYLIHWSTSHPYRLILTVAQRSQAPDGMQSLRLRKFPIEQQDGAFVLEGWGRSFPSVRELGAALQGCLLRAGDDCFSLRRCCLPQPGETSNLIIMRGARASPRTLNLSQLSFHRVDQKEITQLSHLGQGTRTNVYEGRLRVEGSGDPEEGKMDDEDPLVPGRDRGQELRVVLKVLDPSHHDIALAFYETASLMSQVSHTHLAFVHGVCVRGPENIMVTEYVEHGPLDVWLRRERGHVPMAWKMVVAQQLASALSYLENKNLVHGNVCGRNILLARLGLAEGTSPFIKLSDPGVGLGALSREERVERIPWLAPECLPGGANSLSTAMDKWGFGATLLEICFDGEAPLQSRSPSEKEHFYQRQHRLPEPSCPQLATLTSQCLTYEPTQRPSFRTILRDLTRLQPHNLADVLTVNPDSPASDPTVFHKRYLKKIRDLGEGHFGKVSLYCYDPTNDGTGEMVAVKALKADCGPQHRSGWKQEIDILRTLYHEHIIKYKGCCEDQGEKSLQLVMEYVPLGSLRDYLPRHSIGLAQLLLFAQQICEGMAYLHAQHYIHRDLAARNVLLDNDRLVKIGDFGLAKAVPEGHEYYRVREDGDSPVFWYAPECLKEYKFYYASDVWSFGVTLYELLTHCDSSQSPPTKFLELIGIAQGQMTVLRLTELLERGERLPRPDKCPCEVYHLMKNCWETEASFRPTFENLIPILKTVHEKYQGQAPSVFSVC
How it was run: as §1

MAPK1 (ERK2) = molecular target: T17, MAPK1 (ERK2) (Homo sapiens, UniProt P28482)
T17 construct: purchased Invitrogen (Life Technologies) SelectScreen Z'-LYTE
How it was run: as §1

PIM2 = molecular target: T18, PIM2 (Homo sapiens, UniProt Q9P1W9)
T18 construct: purchased Invitrogen (Life Technologies) SelectScreen Z'-LYTE
T18 sequence (Q9P1W9 whole entry): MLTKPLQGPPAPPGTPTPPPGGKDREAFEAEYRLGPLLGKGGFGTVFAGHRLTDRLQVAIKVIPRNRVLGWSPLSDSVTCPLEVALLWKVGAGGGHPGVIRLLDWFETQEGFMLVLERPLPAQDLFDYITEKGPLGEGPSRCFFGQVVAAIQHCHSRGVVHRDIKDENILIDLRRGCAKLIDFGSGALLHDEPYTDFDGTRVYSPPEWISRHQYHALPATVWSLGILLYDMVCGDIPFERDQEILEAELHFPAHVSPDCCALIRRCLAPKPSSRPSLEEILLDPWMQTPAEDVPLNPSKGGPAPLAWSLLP
How it was run: as §1

CDK5/p35 = molecular target: T19, CDK5/p35 (Homo sapiens, UniProt Q00535)
T19 construct: purchased Invitrogen (Life Technologies) SelectScreen Z'-LYTE
T19 sequence (Q00535 whole entry): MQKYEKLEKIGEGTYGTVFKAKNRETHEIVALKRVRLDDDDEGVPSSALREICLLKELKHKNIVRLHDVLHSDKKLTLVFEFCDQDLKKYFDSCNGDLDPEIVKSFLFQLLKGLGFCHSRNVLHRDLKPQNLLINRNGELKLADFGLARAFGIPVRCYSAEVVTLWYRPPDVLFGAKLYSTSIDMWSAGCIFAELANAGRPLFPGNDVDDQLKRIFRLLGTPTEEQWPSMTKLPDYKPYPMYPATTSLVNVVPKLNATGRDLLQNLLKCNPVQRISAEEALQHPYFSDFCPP
T19 sequence (Q15078 whole entry partner): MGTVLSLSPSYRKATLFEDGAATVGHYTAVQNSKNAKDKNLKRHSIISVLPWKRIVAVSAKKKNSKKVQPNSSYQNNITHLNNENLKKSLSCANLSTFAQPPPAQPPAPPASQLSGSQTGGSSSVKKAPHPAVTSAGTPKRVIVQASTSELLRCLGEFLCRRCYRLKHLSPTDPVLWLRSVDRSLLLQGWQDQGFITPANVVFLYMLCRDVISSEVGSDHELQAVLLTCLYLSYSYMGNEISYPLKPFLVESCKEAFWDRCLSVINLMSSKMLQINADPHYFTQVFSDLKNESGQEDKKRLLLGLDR
How it was run: as §1

FGFR2 = molecular target: T20, FGFR2 (Homo sapiens, UniProt P21802)
T20 construct: purchased Invitrogen (Life Technologies) SelectScreen Z'-LYTE
How it was run: as §1

PRKACA (PKA) = molecular target: T21, PRKACA (PKA) (Homo sapiens, UniProt P17612)
T21 construct: purchased Invitrogen (Life Technologies) SelectScreen Z'-LYTE
How it was run: as §1

PRKCE (PKC epsilon) = molecular target: T22, PRKCE (PKC epsilon) (Homo sapiens, UniProt Q02156)
T22 construct: purchased Invitrogen (Life Technologies) SelectScreen Z'-LYTE
T22 sequence (Q02156 1-737): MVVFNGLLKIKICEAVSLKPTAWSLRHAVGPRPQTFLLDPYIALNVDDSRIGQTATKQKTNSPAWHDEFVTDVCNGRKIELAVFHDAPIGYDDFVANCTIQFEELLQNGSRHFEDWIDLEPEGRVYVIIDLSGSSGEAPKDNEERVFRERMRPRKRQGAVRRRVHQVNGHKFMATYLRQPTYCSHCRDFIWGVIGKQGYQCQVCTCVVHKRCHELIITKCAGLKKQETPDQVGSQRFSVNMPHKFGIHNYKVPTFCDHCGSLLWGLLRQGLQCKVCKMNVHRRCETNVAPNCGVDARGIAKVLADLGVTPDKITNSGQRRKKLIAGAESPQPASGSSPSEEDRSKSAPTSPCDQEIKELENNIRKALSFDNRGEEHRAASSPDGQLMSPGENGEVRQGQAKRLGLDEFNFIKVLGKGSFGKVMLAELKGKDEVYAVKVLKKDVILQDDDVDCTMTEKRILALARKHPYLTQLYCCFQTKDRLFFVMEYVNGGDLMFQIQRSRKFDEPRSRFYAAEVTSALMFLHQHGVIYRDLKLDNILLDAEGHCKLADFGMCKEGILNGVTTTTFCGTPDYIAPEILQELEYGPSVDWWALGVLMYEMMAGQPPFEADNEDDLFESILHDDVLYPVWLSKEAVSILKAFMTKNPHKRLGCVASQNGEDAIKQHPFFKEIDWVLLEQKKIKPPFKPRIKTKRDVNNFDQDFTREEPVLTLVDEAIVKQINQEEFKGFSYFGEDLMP
How it was run: as §1

| % inhibition of activity (CDK9/cyclin T1) [%] | % inhibition of activity (AKT1 (PKB alpha)) [%] | % inhibition of activity (KIT) [%] | % inhibition of activity (MAP2K2 (MEK2)) [%] | % inhibition of activity (LYNA) [%] | % inhibition of activity (PAK3) [%] | % inhibition of activity (MAPK9 (JNK2)) [%] | % inhibition of activity (BRAF) [%] | % inhibition of activity [1] [%] | % inhibition of activity (MARK3) [%] | % inhibition of activity (RAF1 (cRAF) Y340D Y341D) [%] | % inhibition of activity (PRKCB1 (PKC beta I)) [%] | % inhibition of activity (PDK1 Direct) [%] | % inhibition of activity (G3K3A (G3K3 alpha)) [%] | % inhibition of activity (PRKCQ (PKC theta)) [%] | % inhibition of activity (TYK2) [%] | % inhibition of activity (MAPK1 (ERK2)) [%] | % inhibition of activity (PIM2) [%] | % inhibition of activity (CDK5/p35) [%] | % inhibition of activity (FGFR2) [%] | Structure (SMILES) | further results |
| --- | --- | --- | --- | --- | --- | --- | --- | --- | --- | --- | --- | --- | --- | --- | --- | --- | --- | --- | --- | --- | --- |
| −8 | 0 | 32 | 15 | 39 | 106 | 44 | 7 | 0 | 24 | 11 | 18 | 0 | 7 | 24 | 6 | 5 | 3 | 7 | 15 | CCn1c(=O)c(-c2ccc(-c3cncc(C)n3)cc2Cl)cc2cnc(NCCC3CCN(C)CC3)nc21 [Frax1036] | % inhibition of activity (PRKACA (PKA)): 1%; % inhibition of activity (PRKCE (PKC epsilon)): 25% |
| 13 | 16 | 7 | 20 | 76 | 100 | 0 | 52 | 7 | 100 | 26 | 58 | 67 | 52 | 97 | 14 | 23 | 4 | 15 | 72 | Cc1nc(Nc2[nH]nc3c2CN(C(=O)N[C@H](CN(C)C)c2ccccc2)C3(C)C)c2sccc2n1 [PF3758309, reference compound] | % inhibition of activity (PRKACA (PKA)): 100%; % inhibition of activity (PRKCE (PKC epsilon)): 62% |

| Structure (SMILES) | % inhibition of activity (CDK9/cyclin T1) [%] | % inhibition of activity (AKT1 (PKB alpha)) [%] | % inhibition of activity (KIT) [%] | % inhibition of activity (MAP2K2 (MEK2)) [%] | % inhibition of activity (LYNA) [%] | % inhibition of activity (PAK3) [%] | % inhibition of activity (MAPK9 (JNK2)) [%] | % inhibition of activity (BRAF) [%] | % inhibition of activity [1] [%] | % inhibition of activity (MARK3) [%] | % inhibition of activity (RAF1 (cRAF) Y340D Y341D) [%] | % inhibition of activity (PRKCB1 (PKC beta I)) [%] | % inhibition of activity (PDK1 Direct) [%] | % inhibition of activity (G3K3A (G3K3 alpha)) [%] | % inhibition of activity (PRKCQ (PKC theta)) [%] | % inhibition of activity (TYK2) [%] | % inhibition of activity (MAPK1 (ERK2)) [%] | % inhibition of activity (PIM2) [%] | % inhibition of activity (CDK5/p35) [%] | % inhibition of activity (FGFR2) [%] | further results |
| --- | --- | --- | --- | --- | --- | --- | --- | --- | --- | --- | --- | --- | --- | --- | --- | --- | --- | --- | --- | --- | --- |
| CCn1c(=O)c(-c2ccc(-c3noc(C)n3)cc2Cl)cc2cnc(Nc3ccc(C4CCN(C)CC4)cc3)nc21 [Frax716] | 3 | 1 | 77 | 79 | 88 | 90 | 20 | 72 | 10 | 16 | 74 | 9 | 15 | −9 | 12 | 54 | 7 | 1 | 2 | 60 | % inhibition of activity (PRKACA (PKA)): 7%; % inhibition of activity (PRKCE (PKC epsilon)): 14% |
